Among the data in patent publication US11358965B2, “EGFR dimer disruptors and use of the same” (THE REGENTS OF THE UNIVERSITY OF MICHIGAN, priority 2018, dated 2022) are IC50, viability and survival values, retold here.

In assay [1] the test system is UMCC92 cells. The assay can be described thus: Clonogenic IC50, UMCC92. The class given is cell-based.
Assay [2] concerns UM1 cells. Put plainly: Clonogenic IC50, UM1. The class given is cell-based.
Assay [3] relates to RKO cells. Put plainly: Clonogenic IC50, RKO. The class given is cell-based. The following applies: Homo sapiens.
Assay [4] relates to cells. The assay can be described thus: Cell Titer Blue % cell viable (24 hrs). The assay is classed as cell-based. The following applies: 24 h. On the procedure: The viability of cells upon treatment was assessed by CellTiter-Blue® reagent following the manufacturer's protocol in RKO, UM10B, UM1, MCR5, and UMCC92 cells. Briefly, 10,000 cells were plated in 96-well plate in quadruplets. One day after seeding, cells were treated with a range of concentrations (0.1 to 30 micromolar). […] Only the viable cells convert the redox dye (reszurin) into a fluorescent product (resofurin). The emission of fluorescence (excitation 560 nm) was measured at […]. The IC50 value was calculated as the mean concentration of compounds required to inhibit cell proliferation as measured by the fluorescence at […] by 50 percent compared to the vehicle-treated controls.
Background: The colour change of resazurin is a common sign of viable cells or microbes.

Assay [5] has as its system UM10B cells. Put plainly: Clonogenic IC50, UM10B. The assay is classed as cell-based.
Assay [6] deals with MCR5 cells. Put plainly: Clonogenic IC50, MCR5. The following applies: MCR5, MCR5. The class given is cell-based. The protocol:
It was determined if the response to Compound 8C correlates with inhibition of EGF-induced dimerization and degradation of EGFR. For this, PC9-AZR cells were treated for 1 hour with 1 μM Compound 8C and an additional 30 minutes with EGF (30 ng/ml) and 30 minutes with disuccinimidyl suberate (DSS, 150 μM) to cross-link interacting proteins. Lysates were prepared and immunoblotted with anti-EGFR antibodies.
The viability of cells upon treatment was assessed by CellTiter-Blue® reagent following the manufacturer's protocol in RKO, UM10B, UM1, MCR5, and UMCC92 cells. Briefly, 10,000 cells were plated in 96-well plate in quadruplets. One day after seeding, cells were treated with a range of concentrations (0.1 to 30 micromolar). 3-days post-treatment, cells were incubated with the CellTiter-Blue® reagent for 4 hr. Only the viable cells convert the redox dye (reszurin) into a fluorescent product (resofurin). The emission of fluorescence (excitation 560 nm) was measured at […]. The IC50 value was calculated as the mean concentration of compounds required to inhibit cell proliferation as measured by the fluorescence at […] by 50 percent compared to the vehicle-treated controls.

Assay [7] has as its system Ba/F3-AZR cells (L858R+T790M+C797S-EGFR). Put plainly: Osimertinib resistant Ba/F3-AZR ascites tumor model. The assay is classed as in vivo, nude mice. The following applies: mouse, in vivo, 30 mg/kg.

For the molecule `COc1ccc(C2=NC3(CCN(C)CC3)N(CC(=O)Nc3ccc(OC)c(Cl)c3)C2=O)cc1` [Compound 5, N-(3-chloro-4-methoxyphenyl)-2-(3-(4-methoxyphenyl)-8-methyl-2-oxo-1,4,8-triazaspiro[4.5]dec-3-en-1-yl)acetamide], the IC50 in assay [1] was 34 µM; in assay [2] it was 0.9 µM; in assay [3], 11.6 µM. Besides, the viability at 15 µM in assay [4] (Conc 15 μM) stood at 60%.
For `Cc1ccc(C2=NC3(CCN(C)CC3)N=C2SCC(=O)Nc2ccc(F)c(F)c2)cc1` [Compound 25], the IC50 turned out to be 2.1 µM in assay [1], 2.6 µM in assay [5], 3.7 µM in assay [3] and 69.3 µM in assay [6]. The molecule also came in with a viability at 30 µM in assay [4] (Conc 30 μM) of 78%.
Take `C=CC(=O)Nc1cc(Nc2nccc(-c3cn(C)c4ccccc34)n2)c(OC)cc1N(C)CCN(C)C` [osimertinib, reference compound]: the survival result in assay [7] is reported as “no difference”.

As usually defined, the IC50 is the concentration at which inhibition is half-maximal. Low values mean higher potency, high ones lower potency. One may read the viability as the share of living cells, or the viability signal relative to a control.
